Measurements reported in ChEMBL document CHEMBL3758102, “Serrulatane Diterpenoid from Eremophila neglecta Exhibits Bacterial Biofilm Dispersion and Inhibits Release of Pro-inflammatory Cytokines from Activated Macrophages” (J Nat Prod, 2015).
Active and inactive are the calls of the source. No cut-off for these calls is given here.

Legend:
[1] = test system: BMDM; assay: Inhibition of TNFalpha production in C57Bl/6 mouse BMDM cells at 1.6 to 6.4 uM pretreated prior to LPS-stimulation measured on day 7 by ELISA; type: functional, cell-based; details: C57BI/6
[2] = test system: BMDM; assay: Inhibition of IL-6 production in C57Bl/6 mouse BMDM cells at 1.6 to 6.4 uM pretreated prior to LPS-stimulation measured on day 7 by ELISA; type: functional, cell-based; details: C57BI/6
[3] = test system: BMDM; assay: Inhibition of IL-1beta production in C57Bl/6 mouse BMDM cells at 1.6 to 6.4 uM pretreated for 1 hr prior to ATP-stimulation by ELISA; type: functional, cell-based; details: C57BI/6
[4] = test system: Staphylococcus epidermidis; assay: Antibacterial activity against Staphylococcus epidermidis ATCC 35984 incubated overnight by broth microdilution method; type: functional
[5] = test system: Staphylococcus epidermidis; assay: Antibiofilm activity against Staphylococcus epidermidis ATCC 35984 assessed as inhibition of 3 to 6 hrs pre-established biofilm formation at 0.064 umol/well after 20 hrs by safranin staining-based method; type: functional, organism-based
[6] = test system: Staphylococcus epidermidis; assay: Antibiofilm activity against Staphylococcus epidermidis ATCC 35984 assessed as inhibition of 12 hrs pre-established biofilm formation at 0.064 umol/well after 20 hrs by safranin staining-based method; type: functional, organism-based
[7] = test system: Staphylococcus epidermidis; assay: Antibiofilm activity against Staphylococcus epidermidis ATCC 35984 assessed as inhibition of 24 hrs pre-established biofilm formation at 0.064 umol/well after 20 hrs by safranin staining-based method; type: functional, organism-based
[8] = test system: Staphylococcus epidermidis; assay: Antibiofilm activity against Staphylococcus epidermidis ATCC 35984 assessed as 3 hrs pre-established biofilm viable cell count after 20 hrs (reference value: 1 x 10^10 CFU/ml); type: functional
[9] = test system: Staphylococcus epidermidis; assay: Antibiofilm activity against Staphylococcus epidermidis ATCC 35984 assessed as 6 hrs pre-established biofilm viable cell count after 20 hrs (reference value: 8.3 x 10^9 CFU/ml); type: functional
[10] = test system: Staphylococcus epidermidis; assay: Antibiofilm activity against Staphylococcus epidermidis ATCC 35984 assessed as 12 hrs pre-established biofilm viable cell count after 20 hrs (reference value: 1.2 x 10^10 CFU/ml); type: functional
[11] = test system: Staphylococcus epidermidis; assay: Antibiofilm activity against Staphylococcus epidermidis ATCC 35984 assessed as 24 hrs pre-established biofilm viable cell count after 20 hrs (reference value: 1.4 x 10^10 +/- 2.6 x 10^9 CFU/ml); type: functional
[12] = test system: Staphylococcus epidermidis; assay: Antibiofilm activity against Staphylococcus epidermidis ATCC 35984 assessed as reduction in 12 hrs pre-established biofilm viable cell count after 20 hrs (reference value: 1.2 x 10^10 CFU/ml); type: functional
[13] = test system: Staphylococcus epidermidis; assay: Antibiofilm activity against Staphylococcus epidermidis ATCC 35984 assessed as inhibition of 12 hrs pre-established biofilm formation at 0.064 umol/well after 20 hrs by visible spectrometric analysis; type: functional, organism-based
[14] = test system: Staphylococcus epidermidis; assay: Antibiofilm activity against Staphylococcus epidermidis ATCC 35984 assessed as inhibition of 24 hrs pre-established biofilm formation at 0.064 umol/well after 20 hrs by visible spectrometric analysis; type: functional, organism-based
[15] = test system: Staphylococcus epidermidis; assay: Antibiofilm activity against Staphylococcus epidermidis ATCC 35984 assessed as killing of biofilm in 12 hrs pre-established biofilm at 0.064 umol/well after 20 hrs by fluorescence staining-based confocal microscopic analysis; type: functional, organism-based

MIC [4]	Structure (SMILES)	inhibition [1]	inhibition [2]	inhibition [3]	Activity [5]	Activity [6]	Activity [7]	Activity [8]	Activity [9]	Activity [10]	Activity [11]	Activity [12]	inhibition [13]	inhibition [14]	Activity [15]
	C[C@]12CCC(=O)C=C1CC[C@@H]1[C@@H]2[C@@H](O)C[C@@]2(C)[C@H]1CC[C@]2(O)C(=O)COC(=O)CCC(=O)O	Active	Active	inactive											
0.66 µM	C[C@H]1COc2c(N3CCN(C)CC3)c(F)cc3c(=O)c(C(=O)O)cn1c23.C[C@H]1COc2c(N3CCN(C)CC3)c(F)cc3c(=O)c(C(=O)O)cn1c23.O [LEVOFLOXACIN]				Active	inactive	inactive	0 CFU/ml	0 CFU/ml	8 ×10³ CFU/ml	2.2 ×10⁶ CFU/ml	7 log10CFU/ml	Active	Active	Active
	N=C(NCCCCCCNC(=N)NC(=N)Nc1ccc(Cl)cc1)NC(=N)Nc1ccc(Cl)cc1 [CHLORHEXIDINE]				inactive	Active	Active	0 CFU/ml	0 CFU/ml	4 ×10³ CFU/ml	1.3 ×10⁶ CFU/ml	7 log10CFU/ml	Active	Active	Active
